# Experimental data as given in paper PMC12119672, “Development and evaluation of [^11C]DPA-813 and [^18F]DPA-814: novel TSPO PET tracers insensitive to human single nucleotide polymorphism rs6971” (European Journal of Nuclear Medicine and Molecular Imaging, 2025).
# Where “and” joins values, the source holds several entries; their conditions need not be identical. Equal values may be shown once. Marks after values point to notes of the source that are not given here.
# Assays:
# WT human TSPO = molecular target: T1, WT human TSPO (Homo sapiens, UniProt P30536); assay: Competition radioligand binding vs [3H]PK 11195, membranes of transfected HEK-293T cells (WT TSPO); conditions: vs [3H]PK 11195 (10 nM), HEK-293T membranes, mean ± SEM; read-out: Ki WT hTSPO
# T1 construct: expressed in transfected cells
# T1 sequence (P30536 whole entry T147A): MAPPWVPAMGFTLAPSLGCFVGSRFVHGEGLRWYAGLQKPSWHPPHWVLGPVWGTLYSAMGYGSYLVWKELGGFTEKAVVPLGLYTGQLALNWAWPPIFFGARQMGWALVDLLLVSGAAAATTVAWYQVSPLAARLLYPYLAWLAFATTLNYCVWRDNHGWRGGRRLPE
# Description: (§1) Binding affinities (Ki) to wild-type (WT) and A147T human TSPO were assessed using a previously published method. HEK-293T cells were stably transfected with WT and A147T TSPO. Membranes were isolated from each cell line using an Ultra-Turrax hand-held homogeniser. These cells have been previously validated as an in vitro model for low- and high-affinity TSPO binding. […] Non-specific binding was determined using a saturating concentration (1 µM) of non-tritiated PK 11195. This non-specific binding contributed less than 10% of total binding. Reactions were halted by filtering through a 96-well glass-fibre filter plate (Millipore), followed by eight washes with ice-cold 50 mM Tris HCl. Microscint 0 was added to the plate and resultant radioactivity-related photons were collected by a Microbeta 2450 (PerkinElmer). Ki values were fit to a competition binding curve fit on non-specific binding-corrected data using GraphPad Prism 10.0 (GraphPad). Results are presented as mean ± standard error of the mean (SEM) from at least three independent experiments. Binding affinities (Ki) to rat TSPO were measured in duplicate by Eurofins Panlabs Discovery Services (assay #226700) (Supplementary Fig. 12). Single-dose (10 µM) off-target in vitro screening was performed in duplicate by Eurofins Panlabs Discovery Services (Supplementary Table 5).
# (§2) In vitro binding affinities (Ki) for human TSPO were initially assessed using a competition radioligand assay against [^3H]PK 11195 in our well-characterised assay using membranes isolated from transfected HEK-293T cells overexpressing either WT or A147T TSPO [32]. This structure-activity relationship study will be reported in a separate publication. […] Data for DPA-713 and DPA-714 are included for comparison.
# A147T human TSPO = molecular target: T2, A147T human TSPO (Homo sapiens, UniProt P30536); assay: Competition radioligand binding vs [3H]PK 11195, membranes of transfected HEK-293T cells (A147T TSPO); conditions: vs [3H]PK 11195 (10 nM), HEK-293T membranes, mean ± SEM; read-out: Ki A147T hTSPO
# T2 construct: expressed in transfected cells
# T2 sequence (P30536 whole entry, stated change not applied): as the sequence (P30536 whole entry T147A) above, with A147T counted along it
# Description: as §1, §2
# [1] = distribution coefficient; cited from earlier work
# rat TSPO = molecular target: T3, rat TSPO (Rattus norvegicus, UniProt P16257); assay: Competitive binding to rat TSPO vs [3H]PK 11195 (Eurofins assay #226700, rat heart membranes); conditions: vs DPA-713 / DPA-714
# T3 construct: Heart of male Wistar derived rats weighing 175 ± 25 g are used to prepare peripheral benzodiazepine membrane receptors [TSPO]; tissue Eurofins Panlabs Discovery Services assay #226700; host or cells: rat heart (male Wistar derived)
# Description: as §1
# Supplementary Figure 12 Dose-response curves and binding affinities of DPA-813 and DPA-814 showing competitive binding to rat TSPO vs [^3H]PK 11195. Method from Eurofins: Heart of male Wistar derived rats weighing 175 ± 25 g are used to prepare peripheral benzodiazepine membrane receptors [TSPO] in modified Tris-HCl buffer pH 7.5. A 0.25 mg aliquot is incubated with 0.3 nM [^3H]PK 11195 for 15 minutes at 25 °C. Non-specific binding is estimated in the presence of 100 μM Dipyridamole. Membranes are filtered and washed, the filters are then counted to determine [^3H]PK 11195 specifically bound.
# [2] = Ex vivo biodistribution in wild-type rats; parameters: species or system rat; conditions: i.v.
# Description: Wistar/RccHan (WIST) rats from Inotiv, the Netherlands, received intravenous injections via a tail vein catheter of either [^11C]DPA-813 (30–50 MBq) or [^18F]DPA-814 (20–30 MBq). The rats were euthanized at 5, 15, and 45 min post-injection (n = 4 per time point). Blood, heart, lungs, liver, spleen, kidney, urine, bone, brain, duodenum, small intestine, skin, and muscle were collected, weighed, and their radioactivity measured using a Wizard Gamma counter 1470 or 2480 (Wallac/PerkinElmer, Waltham, MA, USA). Entire organs were collected, except for larger organs like the liver and lungs, where only a portion was dissected. The radioactivity uptake in each organ was expressed as the percentage of the injected dose per gram of tissue (%ID/g).
# [3] = Ex vivo metabolite analysis (plasma and brain) in wild-type rats; parameters: species or system rat; conditions: i.v.
# Description: Metabolite analysis was conducted following the method outlined in a previous study. Wistar/RccHan (WIST) rats (Inotiv, the Netherlands) received intravenous injections of either [^11C]DPA-813 (30–50 MBq) or [^18F]DPA-814 (20–30 MBq). Rats were euthanized at 5, 15, and 45 min post-injection (n = 4 per time point). Plasma was separated from blood then processed through a C18 Sep-Pak (Waters, Milford, MA, USA). After washing with 3 mL of water to isolate the polar fraction, the non-polar fraction was eluted using 2 mL of methanol and 1 mL of water and subsequently analyzed by HPLC. The brain tissue was collected and homogenized in a mixture of MeCN and H2O (50/50, 4 mL) before centrifugation (5 min, 4000 rpm, 20 °C, Hettich Universal 32). The obtained supernatant was separated from the precipitate and analyzed via HPLC. Analytical HPLC was performed using a Dionex UltiMate 3000 HPLC system equipped with Chromeleon software (version 6.8), utilizing a Gemini C18 5-µm (10 × 250 mm) column (Phenomenex, Torrance, CA, USA). All fractions were assessed for radioactivity using a Wizard Gamma counter 1470 or 2480 (Wallac/PerkinElmer, Waltham, MA, USA).
# TSPO in human MS tissues = assay: Autoradiography on genotyped human MS brain tissue (HAB, MAB, LAB); format: binding
# Source text: Brain tissues from MS patients (n = 7) were used in this study and were obtained from the MS centre of the Amsterdam University Medical Centers (AUMC). For some patient material, several brain tissues were available. The MS centre received permission from the Ethical Committee of the AUMC (Amsterdam, The Netherlands) to perform autopsies for tissue use and access to medical records for research purposes. All patients and controls, or their next of kin, had given informed consent for autopsy and use of brain tissue for research purposes.
# TSPO rs6971 SNP was determined with a Taqman assay (C_2512465_20, ThermoFisher Scientific, The Netherlands). DNA was isolated from human MS brain tissue cryosections using a QIAmp mini kit from Qiagen according to the manufacturer’s recommendation. The concentration of the isolated DNA was determined on a nanodrop (NanoVue Plus, Biochrom). DNA concentration ranged from 45 to 246 µg/mL. QPCR was performed on a QuantStudio (Applied Biosystems, The Netherlands). Synthetic DNA (300 bp) for the two TSPO SNP alleles, rs6971-A, and rs6971-G, was used as a control for the Taqman assay. DNA samples were diluted 1/100 in milliQ water, and 4.5 µL was used for the QPCR. Control DNA sequences were reconstituted in 10 ng/mL in milliQ water. The final QPCR solution contained 5 µL TaqPath proAmp master mix (ThermoFisher Scientific, The Netherlands), 0.5 µL Taqman SNP, and 4.5 µL DNA. Results of the Taqman assay are summarised in Supplementary Tables 4 and Supplementary Fig. 2.
# Human MS tissue cryosections (20 μm) were mounted on glass slides, air-dried, and stored at − 80 °C until needed. Prior to use, the sections were washed three times in PBS for 5 min each, then dried under an airflow. […] For blocking experiments, tissue sections were co-incubated with PK 11195 (10 µM) and the tracer. After incubation, sections were washed for 90 s three times each in ice-cold PBS and then dipped in deionized water twice. The sections were air-dried and exposed to a phosphor screen BAS-IP SR 2025 (General Electric, Eindhoven, The Netherlands). Phosphor screens were subsequently imaged using a Typhoon FLA 7000 imager (General Electric, Eindhoven, The Netherlands), and signal intensity was quantified using ImageLab software (BioRad, Lunteren, The Netherlands).
# [4] = test system: EAE rat model (spinal cord); assay: PET imaging in the EAE rat model; format: in vivo
compound,measurement,setting,value
"CCN(CC)C(=O)Cc1c(-c2ccc(OCCF)cc2)nn2c(C)cc(C)nc12 [DPA-714, reference compound]",Ki,WT human TSPO,20.9 ± 5 nM
same,Ki,A147T human TSPO,260 ± 93.6 nM
same,logD7.4,[1],2.4 ^b
Cc1cc(C)n2nc(-c3ccc(O[11CH3])cc3)c(CC(=O)N(C)c3ccccc3)c2n1 [[^11C]DPA-813],higher affinity to rat TSPO compared to the parent compound,rat TSPO,24 fold
same,"Biodistribution, Blood",[2]; 5 min post-injection,0.31 ± 0.1 %ID/g
same,"Biodistribution, Bone",[2]; 5 min post-injection,0.28±0.1 %ID/g
same,"Biodistribution, Brain",[2]; 5 min post-injection,0.41 ± 0.1 %ID/g
same,"Biodistribution, Duodenum",[2]; 5 min post-injection,1.44±0.2 %ID/g
same,"Biodistribution, Heart",[2]; 5 min post-injection,3.70±0.5 %ID/g
same,"Biodistribution, Kidney",[2]; 5 min post-injection,3.80±0.5 %ID/g
same,"Biodistribution, Liver",[2]; 5 min post-injection,1.42±0.4 %ID/g
same,"Biodistribution, Lungs",[2]; 5 min post-injection,29.84±3. %ID/g
same,"Biodistribution, Skin",[2]; 5 min post-injection,0.09±0.1 %ID/g
same,"Biodistribution, Small intestine",[2]; 5 min post-injection,1.04±0.4 %ID/g
same,"Biodistribution, Tail",[2]; 5 min post-injection,1.30±0.6 %ID/g
same,"Biodistribution, Urine",[2]; 5 min post-injection,0.03±0.0 %ID/g
same,"Biodistribution, muscle",[2]; 5 min post-injection,0.07±0.0 %ID/g
same,"Biodistribution, spleen",[2]; 5 min post-injection,4.62±0.6 %ID/g
same,"Biodistribution, Blood",[2]; 15 min post-injection,0.34±0.1 %ID/g
same,"Biodistribution, Bone",[2]; 15 min post-injection,0.35±0.1 %ID/g
same,"Biodistribution, Brain",[2]; 15 min post-injection,0.39±0.0 %ID/g
same,"Biodistribution, Duodenum",[2]; 15 min post-injection,1.37±0.1 %ID/g
same,"Biodistribution, Heart",[2]; 15 min post-injection,4.57±0.2 %ID/g
same,"Biodistribution, Kidney",[2]; 15 min post-injection,4.31±0.5 %ID/g
same,"Biodistribution, Liver",[2]; 15 min post-injection,1.69 ± 0.2 %ID/g
same,"Biodistribution, Lungs",[2]; 15 min post-injection,24.03±7. %ID/g
same,"Biodistribution, Skin",[2]; 15 min post-injection,0.10±0.0 %ID/g
same,"Biodistribution, Small intestine",[2]; 15 min post-injection,0.77±0.3 %ID/g
same,"Biodistribution, Tail",[2]; 15 min post-injection,1.18±0.1 %ID/g
same,"Biodistribution, Urine",[2]; 15 min post-injection,0.02±0.0 %ID/g
same,"Biodistribution, muscle",[2]; 15 min post-injection,0.10±0.0 %ID/g
same,"Biodistribution, spleen",[2]; 15 min post-injection,5.88±1.8 %ID/g
same,"Biodistribution, Blood",[2]; 45 min post-injection,0.27 ± 0.01 %ID/g
same,"Biodistribution, Bone",[2]; 45 min post-injection,0.26±0.1 %ID/g
same,"Biodistribution, Brain",[2]; 45 min post-injection,0.34 ± 0.1 %ID/g
same,"Biodistribution, Duodenum",[2]; 45 min post-injection,1.51±0.1 %ID/g
same,"Biodistribution, Heart",[2]; 45 min post-injection,4.28±0.3 %ID/g
same,"Biodistribution, Kidney",[2]; 45 min post-injection,4.20±0.6 %ID/g
same,"Biodistribution, Liver",[2]; 45 min post-injection,1.68±0.3 %ID/g
same,"Biodistribution, Lungs",[2]; 45 min post-injection,16.13±3.5 %ID/g
same,"Biodistribution, Skin",[2]; 45 min post-injection,0.12±0.04 %ID/g
same,"Biodistribution, Small intestine",[2]; 45 min post-injection,1.18±0.2 %ID/g
same,"Biodistribution, Tail",[2]; 45 min post-injection,1.33±0.7 %ID/g
same,"Biodistribution, Urine",[2]; 45 min post-injection,0.23±0.3 %ID/g
same,"Biodistribution, muscle",[2]; 45 min post-injection,0.12±0.03 %ID/g
same,"Biodistribution, spleen",[2]; 45 min post-injection,6.66±1.2 %ID/g
same,"Brain, Parent (intact tracer)",[3]; 5 min post-injection,99.7 ± 0.1%
same,"Plasma, Parent (Intact tracer)",[3]; 5 min post-injection,87.9 ± 2.4%
same,"Brain, Parent (intact tracer)",[3]; 15 min post-injection,99.6 ± 0.3%
same,"Plasma, Parent (Intact tracer)",[3]; 15 min post-injection,85.5 ± 3.2%
same,"Brain, Parent (intact tracer)",[3]; 45 min post-injection,98.9 ± 0.9%
same,"Plasma, Parent (Intact tracer)",[3]; 45 min post-injection,67.2 ± 2.9% and 67%
same,ratio of the binding quantification [11C]DPA-813/[11C]DPA-713,TSPO in human MS tissues; HAB human MS tissue,1 ± 0.2
same,ratio of the binding quantification [11C]DPA-813/[11C]DPA-713,TSPO in human MS tissues; LAB human MS tissue,3
same,ratio of the binding quantification [11C]DPA-813/[11C]DPA-713,TSPO in human MS tissues; MAB human MS tissue,1.6 ± 0.1
same,higher difference EAE vs control compared with the fluorinated compound,"[4]; [11C]DPA-813 vs [18F]DPA-814, [11C]DPA-713 vs [18F]DPA-714",3 folds
same,higher uptake (AUC of time activity curve) in the spinal cord of EAE rats compared to CFA control,"[4]; dynamic PET 60 min, peak of clinical symptoms",64%
CCN(CC)C(=O)Cc1c(-c2ccc(OC)cc2)nn2c(C)cc(C)nc12 [DPA-713],logD7.4,[1],2.4 ^b
